The source of these data is ChEMBL document CHEMBL4665653, “VU6005806/AZN-00016130, an advanced M positive allosteric modulator (PAM) profiled as a potential preclinical development candidate” (Bioorg Med Chem Lett, 2019).

Molecules are shown by their SMILES.

For experiment [1], the system named is Mus musculus. Put plainly: Reversal of amphetamine-induced hyperlocomotion in po dosed C57BL/6 mouse assessed as minimum effective dose pretreated for 30 mins after habituation in chamber followed by amphetamine challenge and measured after 1 hr. Type of experiment: functional. Conditions: C57BL/6, po, 0.5 h, read-out: MED.
For experiment [2], the target named is Androgen receptor (Homo sapiens) (UniProt P10275). Put plainly: Displacement of [3H]methyltrienolone from androgen receptor in human LNCaP cells assessed as residual binding level for radioligand at 10 uM measured after 1200 mins radiometric scintillation analysis relative to control. The class given is cell-based. A general note: Displacement assays read how much labelled ligand stays bound in the presence of the test substance.
Androgen receptor (Homo sapiens), sequence (P10275 whole entry): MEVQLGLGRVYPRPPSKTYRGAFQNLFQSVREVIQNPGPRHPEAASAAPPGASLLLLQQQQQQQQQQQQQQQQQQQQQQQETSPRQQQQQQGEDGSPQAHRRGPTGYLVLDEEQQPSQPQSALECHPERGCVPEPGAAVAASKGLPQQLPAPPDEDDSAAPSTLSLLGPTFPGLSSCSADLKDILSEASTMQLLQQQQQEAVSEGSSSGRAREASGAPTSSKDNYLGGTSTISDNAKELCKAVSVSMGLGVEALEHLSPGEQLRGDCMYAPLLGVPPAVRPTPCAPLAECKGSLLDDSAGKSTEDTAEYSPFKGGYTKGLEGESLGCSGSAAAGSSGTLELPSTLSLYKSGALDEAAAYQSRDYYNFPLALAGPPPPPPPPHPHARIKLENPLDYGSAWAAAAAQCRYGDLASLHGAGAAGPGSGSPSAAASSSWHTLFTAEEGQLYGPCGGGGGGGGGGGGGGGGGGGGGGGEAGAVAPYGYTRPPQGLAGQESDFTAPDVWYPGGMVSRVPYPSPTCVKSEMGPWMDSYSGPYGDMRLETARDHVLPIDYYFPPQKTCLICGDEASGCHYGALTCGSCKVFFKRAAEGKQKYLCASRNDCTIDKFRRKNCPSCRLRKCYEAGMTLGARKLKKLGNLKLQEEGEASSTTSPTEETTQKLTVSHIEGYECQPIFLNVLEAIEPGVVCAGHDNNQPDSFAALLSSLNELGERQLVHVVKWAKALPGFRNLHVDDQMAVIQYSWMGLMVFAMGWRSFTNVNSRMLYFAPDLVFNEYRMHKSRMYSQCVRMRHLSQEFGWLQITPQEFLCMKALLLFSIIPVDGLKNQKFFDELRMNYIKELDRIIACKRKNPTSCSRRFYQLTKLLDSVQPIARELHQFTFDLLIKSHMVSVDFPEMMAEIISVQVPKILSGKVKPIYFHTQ

`COc1nnc2sc(C(=O)NC3CN(c4ncc(C(F)(F)F)cn4)C3)c(N)c2c1C`: in experiment [1], the minimal effective dose was 1 mg/kg. Besides, the Activity in experiment [2] was more than 50%.
